Source: ChEMBL document CHEMBL1857833, “Screening and optimization of specific chemical series against human African Trypanosomiasis (HAT)”
Converted amounts (≈) assume the structure as drawn.

Tests used:
[1] = DNDI: Cytotoxicity against L929 mouse fibroblasts, CYTO-SP, 24 hour; format: toxicity, cell-based; settings: mouse, L929 mouse fibroblasts
Trypanosoma brucei = experiment: DNDI: Inhibition of Human African Trypanosomiasis, SBRI 427, in vitro; format: functional, organism-based
[2] = DNDI: Cytotoxicity against L929 mouse fibroblasts, 72 hour.; format: toxicity, cell-based; settings: mouse, L929 mouse fibroblasts
[3] = Trypanosoma brucei, SBRI 427, read-out: IC50

Compound	IC50 (Trypanosoma brucei; [3]) [µg/mL]	IC50 (Trypanosoma brucei) [µg/mL]	IC50 at 24 h [1] [µg/mL]	IC50 at 72 h [2] [µg/mL]
O/N=C(\NC1CCC1)c1cccnc1Oc1ccc2c(c1)CCCC2	0.19 (≈ 0.563 µM)		> 50	
CCC(C)(C)N/C(=N\O)c1cccnc1Oc1ccc2ccccc2c1	0.49 (≈ 1.4 µM)		> 50	
CC1CCC(N/C(=N\O)c2cccnc2Oc2ccccc2OC(C)C)CC1 (stereo not given)	0.55 (≈ 1.43 µM)		> 50	
CON(C)C(=O)c1ccccc1-c1ccccc1	> 5		> 50	
Cc1ccc2cccc(Oc3ccc(/C(=N/O)NC4CCCCC4)cn3)c2n1	1.08 (≈ 2.87 µM)		> 50	
O=C(NC1CCCCC1)c1cccnc1Oc1ccccc1	> 5		> 50	
O/N=C(\NC1CCCCC1)c1ccc(Oc2ccc(Cl)cc2)nc1	1.2 (≈ 3.47 µM)		30.8 (≈ 89.1 µM)	
O/N=C(\NC1CCCCC1)c1ccccc1F	3.92 (≈ 16.6 µM)		> 50	
COc1ccc(Oc2ncccc2/C(=N/O)NC2CCC2)cc1	0.28 (≈ 0.894 µM)		> 50	
Cc1cc(Oc2ccc(/C(=N/O)NCC3CC3)cn2)cc(C(C)C)c1			27 (≈ 79.5 µM)	
Cc1ccc(Oc2ccc(/C(=N/O)NCC3CC3)cn2)c(C)c1			> 50	
CC1CCC(N/C(=N\O)c2cccnc2Oc2ccc(-n3cncn3)cc2)CC1 (stereo not given)			> 50	
CC(C)(C)COc1ncccc1/C(=N/O)N1CCCc2ccccc21			26 (≈ 76.6 µM)	
CCC(CC)N/C(=N\O)c1ccc(C)nc1Oc1ccc(C)cc1OC			> 50	
COc1ccccc1Oc1ncccc1/C(=N/O)NC1CCCC1			> 50	
CC1CCC(N/C(=N\O)c2cccnc2Oc2ccc(F)cc2Cl)CC1 (stereo not given)			28 (≈ 74.1 µM)	
CCOc1ccccc1CN/C(=N\O)c1cccnc1Oc1ccccc1SC			> 50	
Cc1ccc(/C(=N/O)NCC(C)(C)C)c(Oc2ccc3ccccc3c2)n1			34 (≈ 93.5 µM)	
O=c1cc(-c2ccccc2)[nH]c2cc(-c3ccc(F)cc3)nn12	> 5			10 (≈ 32.8 µM)
Fc1cccc(-c2cc3nc(-c4ccccc4)cc(NCCCn4ccnc4)n3n2)c1	4.3 (≈ 10.4 µM)			5.91 (≈ 14.3 µM)

Compound	IC50 (Trypanosoma brucei; [3]) [µg/mL]	IC50 (Trypanosoma brucei) [µg/mL]	IC50 at 24 h [1] [µg/mL]	IC50 at 72 h [2] [µg/mL]
C/C(O)=C1\C(=O)NC(COCc2ccccc2)C1=O (stereo not given)	> 5			> 10
c1ccc(-c2nc(C(NCc3ccco3)C3CC3)oc2N2CCOCC2)cc1 (stereo not given)	> 5			> 10
Cc1cc(NCCN2CCCCC2)n2nc(-c3cccc(F)c3)cc2n1	> 5			> 10
Clc1nc(Oc2cccc3ccccc23)c2sccc2n1	> 5			2.52 (≈ 8.06 µM)
Cc1ccc(/C(=N/O)NC2CCC(C)CC2)c(OCc2ccccn2)n1 (stereo not given)			> 50	
COc1ccc(/C=N/OCc2c(F)c(F)c(F)c(F)c2F)cc1	> 5			> 10
CN(C)CC(C)(C)CNc1cc(-c2ccccc2)nc2cc(-c3cccc(F)c3)nn12	> 5			> 10
Cc1cc(NCCN2CCCC2)n2nc(-c3cccc(F)c3)cc2n1	> 5			> 10
COc1cc(C)ccc1Oc1nc(C)ccc1/C(=N/O)NCC(C)C			> 50	
Cc1cc2[nH]c(-c3ccccc3)cc(=O)n2n1	> 5			> 10
COc1ccc(S(=O)(=O)NC2CCCCC2)cc1OC	> 5			> 10
COc1ccc(-c2cc3[nH]c(-c4ccccc4)cc(=O)n3n2)cc1	> 5			> 10
Fc1ccc(-c2cc3nc(-c4ccccc4)cc(NCCN4CCCC4)n3n2)cc1	1.68 (≈ 4.18 µM)			4.94 (≈ 12.3 µM)
O=c1[nH]c(=O)c2sccc2[nH]1	> 5			> 10
O=C1CC(=O)N(C(=O)OCc2ccccc2)C1COCc1ccccc1 (stereo not given)	> 5			> 10
Cc1ccc(/C(=N/O)NCC(C)(C)C)c(Oc2cc(Cl)ccc2Cl)n1			27 (≈ 70.6 µM)	
Brc1nn2ccnc2s1	> 5			> 10
Fc1cccc(-c2cc3nc(-c4ccccc4)cc(NCCN4CCOCC4)n3n2)c1	> 5			> 10
C/C(O)=C1/C(=O)CN(C)C1=O	> 5			> 10
COc1cc(C)ccc1Oc1nc(C)ccc1/C(=N/O)NCC1CC1			> 50	

Further lines, with some results ahead:

IC50 (Trypanosoma brucei; [3]) [µg/mL]	IC50 (Trypanosoma brucei) [µg/mL]	Compound	IC50 at 24 h [1] [µg/mL]	IC50 at 72 h [2] [µg/mL]
0.31 (≈ 0.924 µM)		CCC(CC)N/C(=N\O)c1cccnc1Oc1c(F)cccc1F	> 50	
1.02 (≈ 2.96 µM)		CCCCCC(C)NCc1coc(-c2cccc(OCCCC)c2)n1 (stereo not given)		1.7 (≈ 4.93 µM)
> 5		CCC(C)C(NCc1ccc(C)cc1)c1nc(-c2ccccc2)c(N2CCCCC2)o1 (stereo not given)		> 10
0.87 (≈ 2.6 µM)		CCCCc1ccc(-c2nc(CNC(C)c3ccccc3)co2)cc1 (stereo not given)		3.33 (≈ 9.96 µM)
> 5		CC(C)CC(NCCc1ccc(S(N)(=O)=O)cc1)c1nc(C(C)C)c(N2CCOCC2)o1 (stereo not given)		> 10
> 5		CCC(C)C(NCC(C)C)c1nc(Cc2ccccc2)c(N2CCCCC2)o1 (stereo not given)		> 10
> 5		Cc1oc(-c2ccccc2F)nc1CNCCC1CCCN1C (stereo not given)		> 10
0.535 (≈ 1.48 µM)		NCCCNc1cc(-c2ccccc2)nc2cc(-c3cccc(F)c3)nn12		1.57 (≈ 4.34 µM)
> 5		CCCCc1ccc(-c2nc3ncccc3o2)cc1		> 10
> 5		CCCCc1ccc(-c2nc(CNCc3ccc(Cl)cc3)co2)cc1		7.38 (≈ 20.8 µM)
1.41 (≈ 4.69 µM)		CCCCCC(C)NCc1nc(-c2ccc(C)cc2)oc1C (stereo not given)		> 10
> 5		CCCCc1ccc(-c2nc(Nc3cccnc3)co2)cc1		6.24 (≈ 21.3 µM)
> 5		CCCCc1ccc(-c2nc(-c3ccc4ccccc4c3)co2)cc1		> 10
> 5		CCC(C)C(NCc1ccccc1OC)c1nc(Cc2ccccc2)c(N2CCCCC2)o1 (stereo not given)		> 10
> 5		CCC(C)C(NCc1cccc(C)c1)c1nc(-c2ccccc2)c(N2CCCCC2)o1 (stereo not given)		> 10
> 5		CCOCCCNC(CC(C)C)c1nc(-c2ccccc2)c(N2CCOCC2)o1 (stereo not given)		> 10
2.32 (≈ 7.02 µM)		CCCCCC(C)NCc1coc(-c2cc(C(C)=O)ccc2O)n1 (stereo not given)		3.47 (≈ 10.5 µM)
> 5		CCCCc1ccc(-c2nc(COCC)co2)cc1		> 10
0.51 (≈ 1.7 µM)		CCCCCNCc1coc(-c2ccc(CCCC)cc2)n1		1.64 (≈ 5.46 µM)
3.65 (≈ 8.78 µM)		Fc1ccc(-c2cc3nc(-c4ccccc4)cc(NCCCN4CCCC4)n3n2)cc1		6.92 (≈ 16.7 µM)
> 5		COc1ccc(CNC(CC(C)C)c2nc(C(C)C)c(N3CCOCC3)o2)cc1 (stereo not given)		> 10
> 5		CCC(C)C(NCc1ccc(C)cc1)c1nc(Cc2ccccc2)c(N2CCCCC2)o1 (stereo not given)		> 10
> 5		CCCCc1ccc(-c2nc(-c3cc(-c4ccccc4)no3)co2)cc1		> 10
0.37 (≈ 1.14 µM)		CCCCc1ccc(-c2nc(CNCCc3cnc[nH]3)co2)cc1		2.43 (≈ 7.49 µM)
2.71 (≈ 8.9 µM)		CCCCCC(C)NCc1nc(-c2ccccc2F)oc1C (stereo not given)		8.59 (≈ 28.2 µM)
> 5		CCCCc1ccc(-c2nc(C)c(C(C)=O)o2)cc1		> 10
2.44 (≈ 7.41 µM)		COc1ccc(-c2nc(CNCCC3CCCN3C)c(C)o2)cc1 (stereo not given)		> 10

IC50 (Trypanosoma brucei; [3]) [µg/mL]	IC50 (Trypanosoma brucei) [µg/mL]	Compound	IC50 at 24 h [1] [µg/mL]	IC50 at 72 h [2] [µg/mL]
> 5		Cc1cc(NCCCN2CCCC2)n2nc(-c3cccc(F)c3)cc2n1		> 10
1.6 (≈ 4.69 µM)	0.89 (≈ 2.61 µM)	CCCCc1ccc(-c2nc(CNCCCN3CCCC3)co2)cc1		6.03 (≈ 17.7 µM)
0.9 (≈ 2.64 µM)		CCCCCC(C)NCc1coc(-c2ccc(Cl)cc2Cl)n1 (stereo not given)		3.47 (≈ 10.2 µM)
0.38 (≈ 0.958 µM)		CCCCCC(C)NCc1coc(-c2ccc(OCc3ccc(F)cc3)cc2)n1 (stereo not given)		0.95 (≈ 2.4 µM)
> 5		Cc1ccc(CNC(CC(C)C)c2nc(C(C)C)c(N3CCOCC3)o2)cc1 (stereo not given)		> 10
> 5		CCc1cccc(NS(=O)(=O)c2ccc(OC)cc2)c1		1.88 (≈ 6.45 µM)
0.63 (≈ 2.1 µM)		CCCCc1ccc(-c2nc(CNC(CC)CC)co2)cc1		1.83 (≈ 6.09 µM)
> 5		CCCCc1ccc(-c2nc(C(=O)OCC)co2)cc1		> 10
> 5		Cc1cc(NCCCN2CCCC2=O)n2nc(-c3cccc(F)c3)cc2n1		> 10
> 5		CCOCCCNC(c1nc(Cc2ccccc2)c(N2CCOCC2)o1)C1CC1 (stereo not given)		> 10
> 5		CCCCc1ccc(-c2nc(C)c(C)o2)cc1		5.21 (≈ 22.7 µM)
> 5		Cc1ccc(CNC(c2nc(Cc3ccccc3)c(N3CCOCC3)o2)c2ccccc2F)cc1 (stereo not given)		> 10
2.16 (≈ 7.19 µM)		CCCCCC(C)NCc1nc(-c2cccc(C)c2)oc1C (stereo not given)		> 10
1.54 (≈ 4.87 µM)		CCCCCC(C)NCc1nc(-c2cccc(OC)c2)oc1C (stereo not given)		> 10
> 5		CC(C)COc1ccc(-c2nc(CNCCCN(C)C)co2)cc1		> 10
1.3 (≈ 4.57 µM)		CCCCc1ccc(-c2nc(CNC3CCC3)co2)cc1		3.51 (≈ 12.3 µM)
2.01 (≈ 5.65 µM)	1.48 (≈ 4.16 µM)	CCCCc1ccc(-c2nc(CNCCCN3CCCCC3)co2)cc1		6.2 (≈ 17.4 µM)
4.46 (≈ 9.4 µM)		CC(C)CC(NCc1ccc(Cl)c(Cl)c1)c1nc(-c2ccccc2)c(N2CCOCC2)o1 (stereo not given)		> 10
0.75 (≈ 2.75 µM)		CCCCc1ccc(-c2nc(CNCCC)co2)cc1		4.29 (≈ 15.7 µM)
2.54 (≈ 9.12 µM)		CCCCCC(C)NCc1coc(C2CCCCC2)n1 (stereo not given)		10 (≈ 35.9 µM)
1.05 (≈ 2.51 µM)		CCN(CC)CCCNc1cc(-c2ccccc2)nc2cc(-c3cccc(F)c3)nn12		2.51 (≈ 6.01 µM)
2.58 (≈ 5.45 µM)		CC(C)CC(NCc1ccc(C(F)(F)F)cc1)c1nc(-c2ccccc2)c(N2CCOCC2)o1 (stereo not given)		> 10
> 5		Cc1ccc(CNC(c2nc(Cc3ccccc3)c(N3CCOCC3)o2)C2CC2)cc1 (stereo not given)		> 10
> 5		Cc1ccc(CNC(c2nc(-c3ccccc3)c(N3CCOCC3)o2)C2CC2)cc1 (stereo not given)		> 10
1.35 (≈ 3.15 µM)		CCCCCCCCCCOc1ccc(-c2nc(CNC(C)CCCCC)co2)cc1 (stereo not given)		2.9 (≈ 6.77 µM)
> 5		CCCCc1ccc(-c2nc(C)c(C(=O)OC)o2)cc1		> 10
